For data set [1] the following is noted: humans, oral and/or intravenous 10, 25, 50, 100 mg/kg; cited from earlier work.
For data set [2], the system named is isolated guinea-pig mesenteric artery. In words: Relaxation of isolated mesenteric artery, pressure myograph (Ex 4). The settings on record: for relaxation / artery diameter: endothelium present (adenosine, AL: with or without); for relaxation of isolated intact mesenteric artery: luminal or abluminal, 0.001 to 1 mM. The procedure: Male guinea pigs (250-300 g) were anesthetised and placed in a cradle and the abdomen opened. Second order mesenteric artery branches were isolated and mounted in a pressure myograph (see FIG. 4) under constant pressure of 60 mmHg and perfusion (luminal flow) of 100 uL/min with Krebs-Henseleit buffer (37° C.). Artery diameter was continuously measured using videomicroscopy (see FIG. 4). For the relaxation/vasodilation experiments arteries were equilibrated and then constricted with 10^−8 M arginine vasopressin (AVP). Adenosine, lidocaine or adenosine-lidocaine together were administered 2) luminally and 2) abluminally and concentration curves were obtained. Stock solutions of adenosine and lidocaine alone or adenosine-lidocaine combined were made in deionized water to 20 mM. A range of volumes were pipetted to provide contact concentrations with the vessel lumen or outer wall that ranged from 0.001 to 1 mM. At the end of experiments, arteries were dilated using calcium-free solution to obtain 100% relaxation. A number of arteries were denuded by introducing 5 ml air into the lumen with flow rate 1000 μl/min. The air outflow was then clamped until the intraluminal pressure reached 70 mmHg, flow rate was reduced to 2 μl/min and the vessel remained pressurized for 10 minutes

Data set [3] deals with human NK(1) receptor (Homo sapiens, UniProt P25103). The settings on record: cited from earlier work.

The text below walks through data of patent US20160166598A1, “A METHOD FOR TREATING INFECTION, SEPSIS AND INJURY” (priority 2013, published 2016).

Chain of human NK(1) receptor (P25103 whole entry): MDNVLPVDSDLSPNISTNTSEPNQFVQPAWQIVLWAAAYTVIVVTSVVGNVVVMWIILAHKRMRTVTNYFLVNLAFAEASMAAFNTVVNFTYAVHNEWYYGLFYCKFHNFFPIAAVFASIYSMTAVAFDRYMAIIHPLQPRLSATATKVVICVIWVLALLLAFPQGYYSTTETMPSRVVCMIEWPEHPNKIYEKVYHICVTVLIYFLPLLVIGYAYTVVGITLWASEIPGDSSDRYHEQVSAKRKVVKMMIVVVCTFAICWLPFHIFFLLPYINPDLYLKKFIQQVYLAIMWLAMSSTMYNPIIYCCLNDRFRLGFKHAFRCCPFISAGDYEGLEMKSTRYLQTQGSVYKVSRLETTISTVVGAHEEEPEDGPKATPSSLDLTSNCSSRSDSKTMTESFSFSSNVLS

Turning to `NC(=O)c1ncn([C@@H]2O[C@H](CO)[C@@H](O)[C@H]2O)c1N` [Acadesine, 5-amino-4-imidazole carboxamide ribonucleoside], the safety result in data set [1] is reported as “safe in humans”.

As for `CCN(CC)CC(=O)Nc1c(C)cccc1C` [lidocaine], in data set [2] (endothelium absent), the relaxation entry is “relaxed the artery”. In data set [2], the “relaxation / artery diameter” value is given as “did not significantly change mesenteric artery diameter” and the “relaxation of isolated intact mesenteric artery” value is “failed to produce relaxation”.

As for `Nc1ncnc2c1ncn2[C@@H]1O[C@H](CO)[C@@H](O)[C@H]1O` [adenosine], in data set [2], the “relaxation / artery diameter” value was “relaxed the mesenteric artery in a dose dependent manner” and the “relaxation of isolated intact mesenteric artery” value was “increased relaxation”.

By Ki is commonly meant a dissociation constant, usually derived from enzyme kinetics or from competition with a known ligand. `Cc1cccc(C)c1NC(=O)CN1CCN(C2CCN(C(=O)c3cc(C(F)(F)F)cc(C(F)(F)F)c3)C(Cc3ccccc3)C2)CC1` (centres unmarked) [R116301]: in data set [3], the inhibitory constant (Ki) was 0.45 nM; the “selectivity toward NK(2) and NK(3) receptors” value is listed as “over 200 fold”.
